Measurements published in paper PMC6965684, “Characterization of binding, functional activity, and contractile responses of the selective 5‐HT1F receptor agonist lasmiditan” (British Journal of Pharmacology, 2019).
Counter-ions that a name gives are not always drawn. Like-named read-outs stand apart in the source and are kept apart here.

Assays:
5-HT1F receptor [1] = molecular target: T1, 5-HT1F receptor (Homo sapiens, UniProt P30939); test: biochemical; type: CHO-K1 membranes; set-up: radioligand competition binding on cell membranes, filtration and TopCount scintillation counting; conditions: radioligand displacement; for IC50: read-out: 5‐HT1F / pIC50 (converted); for Ki: read-out: 5‐HT1F / pKi (converted)
T1 construct: gene HTR1F; full-length human recombinant receptor in CHO-K1 cells (Ogeda)
T1 sequence (P30939 1-366): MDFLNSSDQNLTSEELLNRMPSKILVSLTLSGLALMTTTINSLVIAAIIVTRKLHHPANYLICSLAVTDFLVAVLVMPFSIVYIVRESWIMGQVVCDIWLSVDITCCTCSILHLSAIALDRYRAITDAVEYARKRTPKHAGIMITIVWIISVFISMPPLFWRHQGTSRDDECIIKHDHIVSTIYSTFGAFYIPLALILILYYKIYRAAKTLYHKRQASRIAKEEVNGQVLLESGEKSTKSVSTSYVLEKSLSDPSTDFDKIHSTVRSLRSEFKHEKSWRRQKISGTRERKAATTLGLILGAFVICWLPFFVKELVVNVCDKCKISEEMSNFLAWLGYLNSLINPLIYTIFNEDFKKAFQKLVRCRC
Method: Competition binding was performed in duplicate in the wells of a 96‐well plate containing binding buffer (optimized for each receptor), cell membrane extracts (approximately 20,000 cells distributed in the 96‐well plate), radiotracer, and test agonist. Non‐specific binding was determined by co‐incubation with 200‐fold excess of competitor. Cells were incubated and exposed to varying concentrations (1 pM to 10 μM) of a range of displacer agonists (see below). The samples were incubated in a final volume of 0.1 ml and then filtered over Unifilter plates (Perkin Elmer, Massachusetts, USA) pretreated for 2 hr to limit tracer non‐specific binding. Filters were washed five times with 0.5 ml of ice‐cold washing buffer (tris 50 mM pH 7.4) and 50 μl of Microscint 20 (Perkin Elmer) were added to each filter. The plates were incubated 15 min at room temperature on an orbital shaker and then counted with a TopCount™ (Perkin Elmer) for 1 min per well. […] Additionally, the reference values obtained were compared to historical values obtained from the same receptor and used to validate the experimental session. […] For the new assays developed in this study (i.e., 5‐ht1E receptor), the two independent pIC50 determined must be concordant with a 1 log unit interval for the assays to be validated. […]

5-ht1E receptor [2] = molecular target: T2, 5-ht1E receptor (Homo sapiens, UniProt P28566); test: biochemical; type: CHO-K1 membranes; set-up: GTPγS agonist functional assay; conditions: GTPγS
T2 construct: gene HTR1E; full-length human recombinant receptor in CHO-K1 cells (Ogeda); crude membranes
T2 sequence (P28566 whole entry): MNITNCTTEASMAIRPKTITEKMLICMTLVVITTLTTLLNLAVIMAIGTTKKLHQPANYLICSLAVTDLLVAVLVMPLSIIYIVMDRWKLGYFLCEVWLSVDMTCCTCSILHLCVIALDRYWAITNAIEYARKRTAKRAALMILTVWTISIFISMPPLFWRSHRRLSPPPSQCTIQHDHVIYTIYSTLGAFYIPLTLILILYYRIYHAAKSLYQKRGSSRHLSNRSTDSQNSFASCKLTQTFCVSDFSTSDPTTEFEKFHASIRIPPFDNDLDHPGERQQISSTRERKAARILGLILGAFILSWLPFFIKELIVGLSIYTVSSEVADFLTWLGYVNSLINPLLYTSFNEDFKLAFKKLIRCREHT
Description: (§1) Additionally, the reference values obtained were compared to historical values obtained from the same receptor and used to validate the experimental session. […] For the new assays developed in this study (i.e., 5‐ht1E receptor), the two independent pIC50 determined must be concordant with a 1 log unit interval for the assays to be validated.

5-HT1F receptor [3] = molecular target: T1, 5-HT1F receptor; test: biochemical; type: CHO-K1 membranes; set-up: GTPγS agonist functional assay; conditions: GTPγS
Description: as §1

5-ht1E receptor [4] = molecular target: T2, 5-ht1E receptor; test: radioligand competition, CHO-K1 membranes; type: binding; conditions: read-out: 5-ht1E / pKi (converted)
Description: radioligand competition, CHO-K1 membranes on 5-ht1E receptor

5-HT2A receptor = molecular target: T3, 5-HT2A receptor (Homo sapiens, UniProt P28223); test: radioligand competition, CHO-K1 membranes; type: binding; conditions: read-out: 5-HT2A / pKi (converted)
T3 construct: gene HTR2A; full-length human recombinant receptor in CHO-K1 cells (Ogeda); crude membranes
T3 sequence (P28223 whole entry): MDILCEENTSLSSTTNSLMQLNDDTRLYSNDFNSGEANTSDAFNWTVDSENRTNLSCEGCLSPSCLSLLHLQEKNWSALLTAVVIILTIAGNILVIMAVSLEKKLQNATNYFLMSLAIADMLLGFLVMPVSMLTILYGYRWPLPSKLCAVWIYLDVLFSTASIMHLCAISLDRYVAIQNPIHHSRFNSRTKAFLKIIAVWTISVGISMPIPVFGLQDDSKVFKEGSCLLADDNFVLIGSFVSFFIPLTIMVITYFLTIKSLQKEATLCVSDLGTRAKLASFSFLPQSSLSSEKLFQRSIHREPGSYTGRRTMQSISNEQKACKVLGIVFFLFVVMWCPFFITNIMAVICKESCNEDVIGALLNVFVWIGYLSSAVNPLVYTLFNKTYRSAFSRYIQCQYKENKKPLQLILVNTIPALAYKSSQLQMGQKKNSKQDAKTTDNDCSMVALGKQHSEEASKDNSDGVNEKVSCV
Description: radioligand competition, CHO-K1 membranes on 5-HT2A receptor

5-HT2B receptor [5] = molecular target: T4, 5-HT2B receptor (Homo sapiens, UniProt P41595); test: cell-based; set-up: species or system CHO-K1; IPOne HTRF agonist assay, IP1 accumulation in adherent transfected cells
T4 construct: gene HTR2B; full-length human recombinant receptor in CHO-K1 cells (Ogeda); crude membranes
T4 sequence (P41595 whole entry): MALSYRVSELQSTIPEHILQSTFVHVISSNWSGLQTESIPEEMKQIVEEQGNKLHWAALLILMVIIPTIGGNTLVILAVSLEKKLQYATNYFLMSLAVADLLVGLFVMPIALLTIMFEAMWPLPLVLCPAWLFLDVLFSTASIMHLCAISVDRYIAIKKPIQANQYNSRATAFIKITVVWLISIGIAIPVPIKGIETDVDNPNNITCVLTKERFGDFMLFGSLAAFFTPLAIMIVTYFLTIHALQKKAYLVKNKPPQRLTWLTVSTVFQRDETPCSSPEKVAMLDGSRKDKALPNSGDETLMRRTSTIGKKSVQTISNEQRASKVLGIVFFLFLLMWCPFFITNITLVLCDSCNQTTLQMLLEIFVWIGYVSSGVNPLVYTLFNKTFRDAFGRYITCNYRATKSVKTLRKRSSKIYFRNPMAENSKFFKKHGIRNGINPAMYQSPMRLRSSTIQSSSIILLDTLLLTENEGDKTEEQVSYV
Method: The assay was performed on adherent cells. For agonist testing, the medium was removed and 20 μl of assay buffer plus 20 μl of the studied agonist or the reference agonist were added in each well. The plate was incubated for 60 min at 37°C with 5% CO2. IP1‐D2 reagent and anti‐IP1 cryptate reagents were dispensed in the wells, and IP1 concentrations were then measured following the manufacturer instructions (IPOne HTRF assay kit; Cisbio International, Codolet, France). In brief, increasing concentrations of agonists were added to stably transfected cells in buffer in an Optiplate (PerkinElmer Life Sciences). The plates were incubated, and cells were then lysed by the addition of HTRF reagents (IP1‐D2 reagent and anti‐IP1 cryptate reagents) and diluted in lysis buffer, followed by incubation at room temperature. […] Additionally, the reference values obtained were compared to historical values obtained from the same receptor and used to validate the experimental session. […] For the new assays developed in this study (i.e., 5‐ht1E receptor), the two independent pIC50 determined must be concordant with a 1 log unit interval for the assays to be validated.

5-HT2B receptor [6] = molecular target: T4, 5-HT2B receptor; test: radioligand competition, CHO-K1 membranes; type: binding; conditions: for Ki: read-out: 5-HT2B / pKi (converted)
Description: radioligand competition, CHO-K1 membranes on 5-HT2B receptor

5-HT1B receptor = molecular target: T5, 5-HT1B receptor (Homo sapiens, UniProt P28222); test: biochemical; type: CHO-K1 membranes; set-up: GTPγS agonist functional assay
T5 construct: gene HTR1B; full-length human recombinant receptor in CHO-K1 cells (Ogeda); crude membranes
T5 sequence (P28222 whole entry): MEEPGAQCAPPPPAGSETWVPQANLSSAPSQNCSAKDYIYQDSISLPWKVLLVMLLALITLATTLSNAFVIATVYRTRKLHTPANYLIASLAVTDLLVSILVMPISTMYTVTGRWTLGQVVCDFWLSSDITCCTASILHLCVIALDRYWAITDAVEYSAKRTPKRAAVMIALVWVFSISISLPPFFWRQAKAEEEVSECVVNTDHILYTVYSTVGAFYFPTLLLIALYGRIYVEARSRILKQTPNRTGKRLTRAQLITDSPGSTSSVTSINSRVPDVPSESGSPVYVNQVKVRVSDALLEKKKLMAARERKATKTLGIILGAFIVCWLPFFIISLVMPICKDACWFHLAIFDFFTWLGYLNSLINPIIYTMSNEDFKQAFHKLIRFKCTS
Description: as §1

5-HT1D receptor = molecular target: T6, 5-HT1D receptor (Homo sapiens, UniProt P28221); test: biochemical; type: CHO-K1 membranes; set-up: GTPγS agonist functional assay
T6 construct: gene HTR1D; full-length human recombinant receptor in CHO-K1 cells (Ogeda); crude membranes
T6 sequence (P28221 whole entry): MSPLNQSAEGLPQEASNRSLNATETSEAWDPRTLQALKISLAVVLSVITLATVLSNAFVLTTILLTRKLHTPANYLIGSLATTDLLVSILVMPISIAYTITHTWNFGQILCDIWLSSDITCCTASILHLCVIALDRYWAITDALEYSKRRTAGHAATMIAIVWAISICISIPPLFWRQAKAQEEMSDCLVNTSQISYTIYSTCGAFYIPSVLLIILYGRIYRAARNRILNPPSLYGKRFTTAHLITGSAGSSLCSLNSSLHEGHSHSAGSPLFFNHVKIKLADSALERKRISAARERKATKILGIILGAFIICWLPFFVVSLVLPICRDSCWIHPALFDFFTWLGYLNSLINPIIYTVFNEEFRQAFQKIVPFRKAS
Description: as §1

5-HT1F receptor [7] = molecular target: T1, 5-HT1F receptor; test: cAMP HTRF, stably transfected CHO-K1 cells; type: cell-based
[8] = IP, read-out: 5‐HT2B / IP (converted)
[9] = GTPγS, read-out: 5‐HT1B / GTPγS (converted)
[10] = GTPγS, read-out: 5‐HT1D / GTPγS (converted)
[11] = read-out: 5-HT1F / cAMP (converted)

CNC1CCc2[nH]c3ccc(C(N)=O)cc3c2C1 (racemic) [Frovatriptan racemate] was tested, and the IC50 (5-HT1F receptor [1]) was 316 nM, the Ki (5-HT1F receptor [1]) was 120 nM and the EC50 (5-ht1E receptor [2]) was over 10000 nM. It also gave an EC50 (5-HT1F receptor [3]) of 447 nM.

With CNS(=O)(=O)Cc1ccc2[nH]cc(CCCN3CCN(c4ncncc4OC)CC3)c2c1 [Avitriptan fumarate] the Ki (5-ht1E receptor [4]) was 3550 nM, the IC50 (5-HT1F receptor [1]) was 204 nM and the Ki (5-HT2A receptor) was 2340 nM. The EC50 (5-HT2B receptor [5]; [8]) was 389 nM, the Ki (5-HT2B receptor [6]) was 1150 nM and the EC50 (5-ht1E receptor [2]) was over 10000 nM. For the same compound, the EC50 (5-HT1B receptor; [9]) was 2.09 nM, the EC50 (5-HT1F receptor [3]) was 891 nM and the EC50 (5-HT1D receptor; [10]) was 0.537 nM. It also gave an EC50 (5-HT1F receptor [7]; [11]) of 81.3 nM.

N#Cc1ccc(N2CCN(C(=O)COc3ccc4[nH]cc(CCN)c4c3)CC2)cc1 [Donitriptan hydrochloride] was tested, and the Ki (5-ht1E receptor [4]) was 1700 nM, the Ki (5-HT2A receptor) was 447 nM and the EC50 (5-HT2B receptor [5]) was 24.5 nM. For the same compound, the Ki (5-HT2B receptor [6]) was 813 nM, the EC50 (5-ht1E receptor [2]) was over 10000 nM and the EC50 (5-HT1B receptor) was 0.302 nM. The EC50 (5-HT1D receptor) was 0.309 nM and the EC50 (5-HT1F receptor [7]; read-out: 5-HT1A / cAMP) was over 10000 nM.

In the case of CN1CCC[C@@H]1Cc1c[nH]c2ccc(CCS(=O)(=O)c3ccccc3)cc12 [Eletriptan hydrobromide], the Ki (5-ht1E receptor [4]) is reported as 61.7 nM, the IC50 (5-HT1F receptor [1]) is reported as 44.7 nM and the Ki (5-HT2A receptor) is reported as 1150 nM. It also gave an EC50 (5-HT2B receptor [5]; [8]) of 155 nM, a Ki (5-HT2B receptor [6]) of 447 nM and an EC50 (5-ht1E receptor [2]) of 126 nM. It also gave an EC50 (5-HT1B receptor; [9]) of 8.13 nM, an EC50 (5-HT1F receptor [3]) of 132 nM and an EC50 (5-HT1D receptor; [10]) of 0.912 nM. It also gave an EC50 (5-HT1F receptor [7]; [11]) of 7.41 nM.

CN(C)[C@@H]1CCc2[nH]c3ccc(NC(=O)c4ccc(F)cc4)cc3c2C1 [LY344864 hydrochloride] showed an IC50 (5-HT1F receptor [1]) of 4.17 nM, a Ki (5-HT1F receptor [1]) of 1.58 nM and an EC50 (5-HT2B receptor [5]; [8]) of over 10000 nM. It also gave an EC50 (5-HT1F receptor [3]) of 14.1 nM and an EC50 (5-HT1D receptor; [10]) of 117 nM.

For CNS(=O)(=O)CCc1ccc2[nH]cc(C3CCN(C)CC3)c2c1 [Naratriptan hydrochloride], the Ki (5-ht1E receptor [4]) was 7.41 nM, the IC50 (5-HT1F receptor [1]) was 4.68 nM and the EC50 (5-HT2B receptor [5]; [8]) was over 10000 nM. For the same compound, the “5-HT2B / pKi” value (5-HT2B receptor [6]; radioligand listed in supplement Table S1, unreliable (pIC50 printed as <[…])) was 5.08 -log M, the EC50 (5-ht1E receptor [2]) was 6.76 nM and the EC50 (5-HT1B receptor; [9]) was 1.38 nM. The EC50 (5-HT1F receptor [3]) was 8.91 nM and the EC50 (5-HT1F receptor [7]; [11]) was 4.17 nM.
